Experimental data from US11926613B2, “Kinase inhibitors for the treatment of central and peripheral nervous system disorders” (UNIVERSITY OF MIAMI, priority 2017, dated 2024).

Tests used:
[1] = test system: neurons from hippocampi of E18 rat embryos; assay: Neurite growth length (% NTL) in cultured E18 rat hippocampal neurons, 9-point dose response, 48 hours; format: cell-based; settings: Rattus norvegicus, Neuron, 48 h; for activity at 0.078 µM: 78 nM; for activity at 0.156 µM: 156 nM; for activity at 0.312 µM: 312 nM; for activity at 0.625 µM: 625 nM
Protocol: PRE-COATING CULTURE PLATES: On the day before the experiment, 96-well plates were pre-coated by plating 50 μl of Poly-D-lysine solution (PDL, 0.5 mg/mL) in each well. The next morning, the plates were washed four or five times with HBSS or PBS (150 μl/rinse), then left in buffer until cell plating
PREPARING THE CELLS: A timed pregnant rat carrying E18 embryos was euthanized using an IACUC approved method. In a laminar flow hood, the embryos were removed and placed in a petri dish containing Hank's Balanced Salt Solution (HBSS) with 20 mM HEPES, pH 7.3. Pup brains were dissected (see Meberg et al., 2003) and hippocampi were collected in 15 mL a conical tube containing Hibernate E with SM1 (2% v/v).
Dissociation media was prepared by combining 4.5 mL of Hibernate E (without SM1) with 0.5 mL of trypsin and 100 μl of DNAse solution. The medium over the hippocampi was carefully removed and replaced with dissociation solution, then incubated at 37° C. for 15-20 minutes, occasionally swirling the tube.
Using flame polished cotton plugged Pasteur pipettes, the dissociation media was removed, and then 5 mL of Hibernate E containing SM1 were added. The tube was swirled to thoroughly wash the tissue. The tissue was allowed to settle to the bottom of the tube, and the rinse solution was carefully removed. This step was repeated 5 times to dilute out trypsin and DNAse and remove any debris from lysed cells.
The final rinse media was removed from the tube and 1 pipette-full (1-2 mL) of Hibernate E with SM1 was added. Using the flame-polished Pasteur pipette (pre-wetted with rinse media), the tube was triturated until all cells had dissociated and no visible chunks of tissue remained. Fewer than ten triturations were typically performed. The volume was adjusted to 8-12 mL using Hibernate E containing SM1, the well was mixed and cell concentration was determined.
PLATING: The cells were diluted in culture media (NbActiv4 Cell-culture media) to a final concentration of 10,000 cells/mL. The HBSS was aspirated from PDL coated plates, and 150 μL of cell solution was loaded in the middle 48 wells at 1500 cells per well. Water was loaded in the outer wells to decrease evaporation from edge wells. Cells were allowed to adhere for 2 hours in tissue culture incubator prior to treatment.
TREATMENT: Compounds were diluted to various concentrations to provide 9 dose response concentrations of 20 μM, 10 μM, 5, μM, 2.5 μM, 1.25 μM, 0.625 μM, 0.3125 μM, 0.15625 μM, and 0.078125 μM. The plates were cultured for 48 hours, exposed to the compound at the various dose response concentrations.
FIXING THE CULTURES: The culture medium was removed from the plates and immediately replaced with 100-200 μl of warm (37° C.) 4% paraformaldehyde (PFA) solution in phosphate-buffered saline (PBS). The cells were fixed for 15-20 minutes at room temperature, and then rinsed with PBS (200 μl/well×3).
STAINING AND IMAGING: The PBS was removed and replaced with 100 μl of blocking/permeabilization buffer (PBS, 0.2% fish gelatin, 0.03% Triton X-100, 0.02% NaN3), then incubated overnight at 4° C. To this was added 100 μl of primary antibody solution (mouse anti-Beta III tubulin in blocking buffer) and incubate overnight at 4° C. The wells were rinsed with PBS (200 μl×3), which was then removed and replaced with 100 μl of secondary antibody solution (Goat anti-mouse Alexa 488, 10 μg/ml Hoechst 33342, 0.2% fish gelatin, 0.02% azide, in PBS). The plate was shaken gently on a rotating shaker for 2 hours, then rinsed with PBS (200 μl×5).
The plate was imaged using a Cellomics ArrayScan VTI in 2 different channels for nuclear staining (Hoechst) and cell body/neurite staining (βIII-tubulin). Typically, nine fields per well were imaged with a 5× objective and automatically traced by the Neuronal Profiling Bioapplication. To get reproducible results, at least 200-300 valid neurons were measured per condition. […]

[2] = test system: Primary Neurons; assay: HCS neurite outgrowth assay (High Content Screening with Primary Neurons); format: cell-based; settings: Primary neuron

| SMILES | activity at 0.078 µM [1] [%] | activity at 0.156 µM [1] [%] | activity at 0.312 µM [1] [%] | activity at 0.625 µM [1] [%] | activity at 1.25 µM [1] [%] | activity at 2.5 µM [1] [%] | activity at 5 µM [1] [%] | activity at 10 µM [1] [%] | activity at 20 µM [1] [%] | EC50 [2] [µM] |
| --- | --- | --- | --- | --- | --- | --- | --- | --- | --- | --- |
| O=C(N[C@@H]1CCCC[C@H]1NC(=O)c1ccc(C(=O)c2ccccc2)cc1)c1ccncc1 [Example A19, N-[(1R,2R)-2-(4-benzoylbenzamido)cyclohexyl]pyridine-4-carboxamide] | 90.1 | 93.7 | 68.7 | 75 | 75.7 | 78.5 | 79.4 | 87.4 | 91.2 | 2.24 |
| COc1ccc(OC)c(C(=O)c2ccc(C(=O)N[C@@H]3CCCC[C@H]3NC(=O)c3ccncc3)cc2)c1F [Example A21, N-[(1R,2R)-2-[4-(2-fluoro-3,6-dimethoxybenzoyl)benzamido]cyclohexyl] pyridine-4-carboxamide] | 84.7 | 83.3 | 79.8 | 81.8 | 86.8 | 91.5 | 102 | 107 | 108 | 2.92 |
| COc1ccc(O)c(C(=O)c2ccc(C(=O)N[C@@H]3CCCC[C@H]3NC(=O)c3ccncc3)cc2)c1F [Example A22] | 89.3 | 91.8 | 92.3 | 86.2 | 85.5 | 85.5 | 88.7 | 91.1 | 94.7 | 2.61 |
| O=C(N[C@@H]1CCCCC[C@H]1NC(=O)c1ccc(C(=O)c2ccccc2)cc1)c1ccncc1 [Example A23, N-[(1R,2R)-2-(4-benzoylbenzamido)cycloheptyl]pyridine-4-carboxamide] | 98.3 | 102 | 95.6 | 93.6 | 97 | 101 | 105 | 117 | 144 | 16.8 |
| COc1ccc(OC)c(C(=O)c2ccc(C(=O)N[C@@H]3CCCCC[C@H]3NC(=O)c3ccncc3)cc2)c1F [Example A24, N-[(1R,2R)-2-[4-(2-fluoro-3,6-dimethoxybenzoyl)benzamido]cycloheptyl] pyridine-4-carboxamide] | 96.3 | 96.8 | 93.4 | 96.9 | 91.8 | 101 | 114 | 131 | 169 | 16.1 |
| COc1ccc(O)c(C(=O)c2ccc(C(=O)N[C@@H]3CCCCC[C@H]3NC(=O)c3ccncc3)cc2)c1F [Example A25, N-[(1R,2R)-2-[4-(2-fluoro-6-hydroxy-3-methoxybenzoyl)benzamido]cycloheptyl] pyridine-4-carboxamide] | 98.9 | 97.5 | 110 | 111 | 120 | 122 | 134 | 146 | 163 | > 20 |
| COc1ccc(OC)c(C(=O)c2ccc(C(=O)NCCNC(=O)c3ccncc3)cc2)c1F [Example A26, 4-(2-fluoro-3,6-dimethoxybenzoyl)-N-{2-[(pyridin-4-yl)formamido]ethyl}benzamide] | 93.3 | 99.2 | 94.2 | 99.3 | 93.5 | 99.9 | 102 | 97.8 | 117 | > 20 |
| COc1ccc(O)c(C(=O)c2ccc(C(=O)NCCNC(=O)c3ccncc3)cc2)c1F [Example A27, 4-(2-fluoro-6-hydroxy-3-methoxybenzoyl)-N-{2-[(pyridin-4-yl)formamido]ethyl}benzamide] | 103 | 101 | 107 | 118 | 110 | 105 | 117 | 141 | 150 | 7.9 |
| COc1ccc(OC)c(C(=O)c2ccc(C(=O)O[C@@H]3CN(C)C[C@H]3NC(=O)c3ccncc3)cc2)c1F [Example A28, (3R,4R)-1-methyl-4-(pyridine-4-amido)pyrrolidin-3-yl 4-(2-fluoro-3,6-dimethoxybenzoyl)benzoate] | 97.8 | 113 | 103 | 83.7 | 103 | 118 | 133 | 137 | 139 | 4.72 |
| COc1ccc(OC)c(C(=O)c2ccc(C(=O)O[C@@H]3CCN(C)C[C@H]3NC(=O)c3ccncc3)cc2)c1F [Example A30, (3R,4R)-1-methyl-3-(pyridine-4-amido)piperidin-4-yl 4-(2-fluoro-3,6-dimethoxybenzoyl)benzoate] | 93.1 | 89.7 | 90.5 | 83.5 | 93.8 | 94.8 | 103 | 107 | 117 | 4.92 |
| COc1ccc(O)c(C(=O)c2ccc(C(=O)O[C@@H]3CCNC[C@H]3NC(=O)c3ccncc3)cc2)c1F [Example A31, (3R,4R)-3-(pyridine-4-amido)piperidin-4-yl 4-(2-fluoro-6-hydroxy-3-methoxybenzoyl)benzoate] | 122 | 120 | 118 | 115 | 136 | 140 | 151 | 142 | 137 | 1.15 |
| COc1ccc(OC)c(C(=O)c2ccc(C(=O)N[C@@H]3CN(C)C[C@H]3NC(=O)c3ccncc3)cc2)c1F [Example A33, N-[(3R,4R)-4-[4-(2-fluoro-3,6-dimethoxybenzoyl)benzamido]-1-methylpyrrolidin-3-yl]pyridine-4-carboxamide] | 108 | 106 | 99.3 | 107 | 115 | 129 | 142 | 159 | 207 | > 20 |
| COc1ccc(O)c(C(=O)c2ccc(C(=O)N[C@@H]3CNC[C@H]3NC(=O)c3ccc4c(c3)CC(=O)N4)cc2)c1F [Example A35, N-[(3R,4R)-4-[4-(2-fluoro-6-hydroxy-3-methoxybenzoyl)benzamido]pyrrolidin-3-yl]-2-oxo-2,3-dihydro-1H-indole-5-carboxamide] | 91.8 | 90.1 | 86.3 | 89.3 | 86.9 | 95 | 97.2 | 96.7 | 107 | 0.163 |
